In patent US12371441B2, “Siderophore cephalosporin conjugates and uses thereof” (ARIVA MED GMBH, priority 2019, dated 2025):
In brackets after ≈: the same amount, converted by molar mass. Read-outs that look alike come from different tables or passages of the source.

Columns and labels:
[1] = tested on: Escherichia coli ATCC 25922; test: MIC by standard broth microdilution (CLSI), Escherichia coli; type: cell-based
Experimental: (§1) The in vitro activity against bacteria was determined by standard broth microdilution according to the Clinical and Laboratory Standards Institute CLSI document (Performance Standards for Antimicrobial Susceptibility Testing) M100Ed29E (2019) and (Methods for Dilution Antimicrobial Susceptibility Test for Bacteria That Grow Aerobically) M07Ed11 (2018). The data were obtained using cation-adjusted Mueller Hinton broth medium (CAMHB), and additionally iron-depleted CAMHB medium (ID-CAMHB) for compounds with iron-chelating activity.

[2] = Chromeazurol assay (iron-chelating property); type: physicochemical; conditions: for IC50: absorbance at 630 nm
Experimental: The iron-chelating property was determined by the chromeazurol assay according to Schwyn B., et al, Universal Chemical Assay for the Detection and Determination of Siderophores, 1987. Analytical Biochemistry 160: 47-56. The assay uses the affinity of chrome azurol S/iron(III)/hexadecyltrimethylamimonium bromide for iron(III). When a strong chelator removes the iron from this dye, its color turns from blue to orange and the absorbance measured at 630 nm is indicative for the chelating properties of a siderophore.

[3] = tested on: Burkholderia cepacia CF and non-CF isolates, n = 5; test: MIC by standard broth microdilution (CLSI), Burkholderia cepacia isolates; type: cell-based
Experimental: as §1

[4] = tested on: Acinetobacter baumannii ATCC 15473; test: MIC by standard broth microdilution (CLSI), Acinetobacter baumannii; type: cell-based
Experimental: as §1

[5] = tested on: Pseudomonas aeruginosa ATCC 27853; test: MIC by standard broth microdilution (CLSI), Pseudomonas aeruginosa; type: cell-based
Experimental: as §1

[6] = tested on: Klebsiella pneumoniae ATCC 43816; test: MIC by standard broth microdilution (CLSI), Klebsiella pneumoniae; type: cell-based
Experimental: as §1

[7] = ATCC25922, EC ATCC 25922, cation-adjusted Mueller Hinton broth (CAMHB), read-out: MIC in CAMHB medium
[8] = ATCC25922, EC ATCC 25922, iron-depleted CAMHB (value in parentheses), read-out: MIC in ID-CAMHB medium
[9] = read-out: MIC in ID-CAMHB medium
[10] = ATCC15473, AB ATCC 15473, cation-adjusted Mueller Hinton broth (CAMHB), read-out: MIC in CAMHB medium
[11] = ATCC15473, AB ATCC 15473, iron-depleted CAMHB (value in parentheses), read-out: MIC in ID-CAMHB medium
[12] = ATCC27853, PA ATCC 27853, cation-adjusted Mueller Hinton broth (CAMHB), read-out: MIC in CAMHB medium
[13] = ATCC27853, PA ATCC 27853, iron-depleted CAMHB (value in parentheses), read-out: MIC in ID-CAMHB medium
[14] = ATCC43816, KP ATCC 43816, cation-adjusted Mueller Hinton broth (CAMHB), read-out: MIC in CAMHB medium
[15] = ATCC43816, KP ATCC 43816, iron-depleted CAMHB (value in parentheses), read-out: MIC in ID-CAMHB medium

| Structure (SMILES) | MIC [1, 7] [µg/mL] | MIC [1, 8] [µg/mL] | IC50 [2] [µM] | MIC ([3]; read-out: MIC in CAMHB medium) [µg/mL] | MIC [3, 9] [µg/mL] | MIC [4, 10] [µg/mL] | MIC [4, 11] [µg/mL] | MIC [5, 12] [µg/mL] | MIC [5, 13] [µg/mL] | MIC [6, 14] [µg/mL] | MIC [6, 15] [µg/mL] | MIC ([3]; BC CF and non-CF isolates, n = 5 (MIC range), CAMHB, read-out: MIC in CAMHB medium) [µg/mL] | iron-chelating activity compared with cefiderocol ([2]; versus the one measured for cefiderocol (table 1)) |
| --- | --- | --- | --- | --- | --- | --- | --- | --- | --- | --- | --- | --- | --- |
| CC(C)(O/N=C(\C(=O)NC1C(=O)N2C(C(=O)O)=C(C=NO[C@H]3C[C@H](NC(=O)c4ccc(O)c(O)c4Cl)C3)CSC12)c1csc(N)n1)C(=O)O (relative stereo) [Example 7, 7-[[(2Z)-2-(2-aminothiazol-4-yl)-2-(1-carboxy-1-methyl-ethoxy)imino-acetyl]amino]-3-[[3-[(2-chloro-3,4-dihydroxy-benzoyl)amino]- trans-cyclobutoxy]iminomethyl]-8-oxo-5-thia-1-azabicyclo[4.2.0]oct-2-ene-2-carboxylic acid] | 0.5 (≈ 0.677 µM) | 0.5 (≈ 0.677 µM) | 4.66 | 0.03 to 0.12 (≈ 0.0406 to 0.163 µM) | 0.03 to 0.12 (≈ 0.0406 to 0.163 µM) | 2 (≈ 2.71 µM) | 1 (≈ 1.35 µM) | 2 (≈ 2.71 µM) | 1 (≈ 1.35 µM) | 0.12 (≈ 0.163 µM) | 0.5 (≈ 0.677 µM) |  |  |
| CC(C)(O/N=C(\C(=O)N[C@@H]1C(=O)N2C(C(=O)[O-])=C(C[N+]3(CCNC(=O)c4ccc(O)c(O)c4Cl)CCCC3)CS[C@H]12)c1csc(N)n1)C(=O)O [Cefiderocol, cefiderocol, reference compound] | 0.25 (≈ 0.332 µM) | 0.25 (≈ 0.332 µM) | 68.9 | ≤ 0.03 | ≤ 0.03 | 0.25 (≈ 0.332 µM) | 0.12 (≈ 0.16 µM) | 1 (≈ 1.33 µM) | 0.5 (≈ 0.665 µM) | 2 (≈ 2.66 µM) | 0.5 (≈ 0.665 µM) |  |  |
| CC(C)(O/N=C(\C(=O)N[C@@H]1C(=O)N2C(C(=O)[O-])=C(C[n+]3ccccc3)CS[C@H]12)c1csc(N)n1)C(=O)O [Ceftazidime, reference compound] | 0.12 (≈ 0.22 µM) |  | > 100 |  |  | 4 (≈ 7.32 µM) |  | 2 (≈ 3.66 µM) |  | 0.12 (≈ 0.22 µM) |  | 4 to 16 (≈ 7.32 to 29.3 µM) |  |
| Cn1c(N)c(NC(=O)NCCN)c[n+]1CC1=C(C(=O)O)N2C(=O)[C@@H](NC(=O)/C(=N\OC(C)(C)C(=O)[O-])c3nsc(N)n3)[C@H]2SC1 [Ceftolozane, reference compound] | 0.25 (≈ 0.375 µM) |  | > 100 | 2 to 8 (≈ 3 to 12 µM) |  | 2 (≈ 3 µM) |  | 0.5 (≈ 0.75 µM) |  | 0.25 (≈ 0.375 µM) |  |  |  |
| CC(C)(O/N=C(\C(=O)N[C@@H]1C(=O)N2C(C(=O)O)=C(C=NOCc3cc(=O)c(O)cn3O)CS[C@H]12)c1csc(N)n1)C(=O)O [Example 1, (6R,7R)-7-[[(2Z)-2-(2-aminothiazol-4-yl)-2-(1-carboxy-1-methyl-ethoxy)imino-acetyl]amino]-3-[(1,5-dihydroxy-4-oxo-2-pyridyl)methoxyiminomethyl]-8-oxo-5-thia-1-azabicyclo[4.2.0]oct-2-ene-2-carboxylic acid] | 0.12 (≈ 0.188 µM) | 0.25 (≈ 0.392 µM) | 7.18 | 0.03 to 0.06 (≈ 0.0471 to 0.0941 µM) | 0.03 to 0.12 (≈ 0.0471 to 0.188 µM) | 2 (≈ 3.14 µM) | 0.5 (≈ 0.784 µM) | 1 (≈ 1.57 µM) | 0.25 (≈ 0.392 µM) | ≤ 0.03 | 0.25 (≈ 0.392 µM) |  |  |
| CC(C)(O/N=C(\C(=O)N[C@@H]1C(=O)N2C(C(=O)O)=C(C=NOCc3cc(=O)c(O)cn3O)CS[C@H]12)c1nsc(N)n1)C(=O)O [Example 2, (6R,7R)-7-[[(2Z)-2-(5-amino-1,2,4-thiadiazol-3-yl)-2-(1-carboxy-1-methyl-ethoxy)imino-acetyl]amino]-3-[(1,5-dihydroxy-4-oxo-2-pyridyl)methoxyiminomethyl]-8-oxo-5-thia-1-azabicyclo[4.2.0]oct-2-ene-2-carboxylic acid] | 0.06 (≈ 0.094 µM) |  | 9.56 | 0.03 to 0.5 (≈ 0.047 to 0.783 µM) | 0.03 to 0.5 (≈ 0.047 to 0.783 µM) | 1 (≈ 1.57 µM) |  | 0.5 (≈ 0.783 µM) | 0.12 (≈ 0.188 µM) | 0.06 (≈ 0.094 µM) |  |  |  |
| Nc1nc(/C(=N/OCF)C(=O)N[C@@H]2C(=O)N3C(C(=O)O)=C(C=NOCc4cc(=O)c(O)cn4O)CS[C@H]23)ns1 [Example 3, (6R,7R)-7-[[(2Z)-2-(5-amino-1,2,4-thiadiazol-3-yl)-2-(fluoromethoxyimino)acetyl]amino]-3-[(1,5-dihydroxy-4-oxo-2-pyridyl)methoxyiminomethyl]-8-oxo-5-thia-1-azabicyclo[4.2.0]oct-2-ene-2-carboxylic acid] | ≤ 0.03 | ≤ 0.03 | 7.96 |  |  | 8 (≈ 13.7 µM) | 16 (≈ 27.4 µM) | 4 (≈ 6.84 µM) | 0.5 (≈ 0.855 µM) | ≤ 0.03 | ≤ 0.03 |  |  |
| CC(C)(O/N=C(\C(=O)NC1C(=O)N2C(C(=O)O)=C(C=NOCCNC(=O)c3ccc(O)c(O)c3Cl)CSC12)c1csc(N)n1)C(=O)O (stereo not shown) [Example 4, 7-[[(2Z)-2-(2-aminothiazol-4-yl)-2-(1-carboxy-1-methyl-ethoxy)imino-acetyl]amino]-3-[2-[(2-chloro-3,4-dihydroxy-benzoyl)amino]ethoxyiminomethyl]-8-oxo-5-thia-1-azabicyclo[4.2.0]oct-2-ene-2-carboxylic acid] | 0.25 (≈ 0.351 µM) | 0.25 (≈ 0.351 µM) | 4.22 | 0.03 to 0.12 (≈ 0.0421 to 0.169 µM) | 0.03 to 0.06 (≈ 0.0421 to 0.0843 µM) | 4 (≈ 5.62 µM) | 1 (≈ 1.4 µM) | 2 (≈ 2.81 µM) | 0.5 (≈ 0.702 µM) | 0.06 (≈ 0.0843 µM) | 0.06 (≈ 0.0843 µM) |  | an order of magnitude stronger |
| CC(C)(O/N=C(\C(=O)NC1C(=O)N2C(C(=O)O)=C(C=NOCCNC(=O)c3ccc(O)c(O)c3Cl)CSC12)c1nsc(N)n1)C(=O)O (stereo not shown) [Example 5, 7-[[(2Z)-2-(5-amino-1,2,4-thiadiazol-3-yl)-2-(1-carboxy-1-methyl-ethoxy)imino-acetyl]amino]-3-[2-[(2-chloro-3,4-dihydroxy-benzoyl)amino]ethoxyiminomethyl]-8-oxo-5-thia-1-azabicyclo[4.2.0]oct-2-ene-2-carboxylic acid] | 0.25 (≈ 0.351 µM) | 0.25 (≈ 0.351 µM) | 6.41 | 0.03 to 0.12 (≈ 0.0421 to 0.168 µM) | 0.03 to 0.12 (≈ 0.0421 to 0.168 µM) | 1 (≈ 1.4 µM) | 0.5 (≈ 0.701 µM) | 2 (≈ 2.8 µM) | 0.5 (≈ 0.701 µM) | 0.5 (≈ 0.701 µM) | 1 (≈ 1.4 µM) |  |  |
| Nc1nc(/C(=N/OCF)C(=O)NC2C(=O)N3C(C(=O)O)=C(C=NOCCNC(=O)c4ccc(O)c(O)c4Cl)CSC23)ns1 (stereo not shown) [Example 6, 7-[[(2Z)-2-(5-amino-1,2,4-thiadiazol-3-yl)-2-(fluoromethoxyimino)-acetyl]amino]-3-[2-[(2-chloro-3,4-dihydroxy-benzoyl)amino]ethoxyiminomethyl]-8-oxo-5-thia-1-azabicyclo[4.2.0]oct-2-ene-2-carboxylic acid] | 0.25 (≈ 0.379 µM) | 0.12 (≈ 0.182 µM) | 6.46 |  |  | 4 (≈ 6.07 µM) | 4 (≈ 6.07 µM) | 4 (≈ 6.07 µM) | 1 (≈ 1.52 µM) | ≤ 0.03 | ≤ 0.03 |  |  |
| CC(C)(O/N=C(\C(=O)NC1C(=O)N2C(C(=O)O)=C(C=NO[C@H]3CCN(C(=O)c4ccc(O)c(O)c4Cl)C3)CSC12)c1csc(N)n1)C(=O)O (stereo partly drawn) [Example 8, 7-[[(2Z)-2-(2-aminothiazol-4-yl)-2-(1-carboxy-1-methyl-ethoxy)imino-acetyl]amino]-3-{[(3S)-1-(2-chloro-3,4-dihydroxy-benzoyl)pyrrolidine-3-yl]oxyiminomethyl}-8-oxo-5-thia-1-azabicyclo[4.2.0]oct-2-ene-2-carboxylic acid] | 0.12 (≈ 0.163 µM) | 0.12 (≈ 0.163 µM) | 5.64 |  |  | 0.5 (≈ 0.677 µM) | 0.5 (≈ 0.677 µM) | 1 (≈ 1.35 µM) | 0.25 (≈ 0.339 µM) | < 0.03 | < 0.03 |  |  |
